Columns and labels:
Type in all cases: biochemical
[1] = molecular target: GSK3-beta (Homo sapiens, UniProt P49841); assay: GSK3-beta enzyme inhibition; conditions: Target GSK3-beta
[2] = molecular target: T1, SGK1 (Homo sapiens, UniProt O00141); assay: SGK1 enzyme inhibition (filter binding method); conditions: Target SGK1
T1 sequence (O00141 1-431): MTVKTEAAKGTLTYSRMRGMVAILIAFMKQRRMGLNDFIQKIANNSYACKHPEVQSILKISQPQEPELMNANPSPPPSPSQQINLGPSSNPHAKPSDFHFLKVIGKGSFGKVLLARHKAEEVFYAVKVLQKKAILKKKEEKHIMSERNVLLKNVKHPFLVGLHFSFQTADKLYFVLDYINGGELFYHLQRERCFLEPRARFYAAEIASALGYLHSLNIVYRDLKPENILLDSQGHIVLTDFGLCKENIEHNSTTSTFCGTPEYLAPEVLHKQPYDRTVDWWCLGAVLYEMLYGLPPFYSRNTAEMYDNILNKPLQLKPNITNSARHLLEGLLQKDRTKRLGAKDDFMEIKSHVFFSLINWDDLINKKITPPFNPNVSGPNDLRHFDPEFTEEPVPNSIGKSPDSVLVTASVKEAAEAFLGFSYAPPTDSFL
Excerpt: Other assays are known from the literature and could readily be performed by the person skilled in the art (see, for example, Dhanabal et al., Cancer Res. 59:189-197; Xin at al., J. Biol. Chem. 274:9116-9121; Sheu et al., Anticancer Res. 18:4435-4441; Ausprunk et al., Dev. Biol. 38:237-248; Gimbrone et al., J. Natl. Cancer Inst. 52:413-427; Nicosia at al., In Vitro 18:538- 549). The inhibition of SGK1 protein kinase can be determined in the filter binding method.

[3] = molecular target: T2, SGK2 (Homo sapiens, UniProt Q9HBY8); assay: SGK2 enzyme inhibition; conditions: Target SGK2
T2 sequence (Q9HBY8 1-367): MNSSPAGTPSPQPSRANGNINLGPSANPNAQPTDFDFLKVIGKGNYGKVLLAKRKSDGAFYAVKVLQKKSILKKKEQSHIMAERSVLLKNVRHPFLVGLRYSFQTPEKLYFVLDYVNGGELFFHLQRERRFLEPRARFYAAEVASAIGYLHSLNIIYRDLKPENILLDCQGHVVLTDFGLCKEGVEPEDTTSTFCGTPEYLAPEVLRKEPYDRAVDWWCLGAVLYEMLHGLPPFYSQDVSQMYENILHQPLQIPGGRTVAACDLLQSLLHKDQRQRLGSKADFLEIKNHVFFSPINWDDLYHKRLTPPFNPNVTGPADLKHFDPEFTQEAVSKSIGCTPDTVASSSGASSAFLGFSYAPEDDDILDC

[4] = molecular target: T3, SGK3 (Homo sapiens, UniProt Q96BR1); assay: SGK3 enzyme inhibition; conditions: Target SGK3
T3 sequence (Q96BR1 1-496): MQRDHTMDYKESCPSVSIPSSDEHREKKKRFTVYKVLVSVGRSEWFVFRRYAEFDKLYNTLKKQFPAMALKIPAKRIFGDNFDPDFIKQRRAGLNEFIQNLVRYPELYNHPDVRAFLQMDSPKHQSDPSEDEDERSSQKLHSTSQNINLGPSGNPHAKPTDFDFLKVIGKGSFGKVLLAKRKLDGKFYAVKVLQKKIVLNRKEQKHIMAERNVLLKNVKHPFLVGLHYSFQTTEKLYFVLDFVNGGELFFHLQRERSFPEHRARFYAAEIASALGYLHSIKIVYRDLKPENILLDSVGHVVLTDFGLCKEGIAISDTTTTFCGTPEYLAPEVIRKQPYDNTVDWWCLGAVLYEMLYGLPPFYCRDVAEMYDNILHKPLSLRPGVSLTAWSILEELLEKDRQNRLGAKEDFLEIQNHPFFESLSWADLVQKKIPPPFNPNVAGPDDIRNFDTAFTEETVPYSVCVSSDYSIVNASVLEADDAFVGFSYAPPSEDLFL

Chain of GSK3-beta (P49841 whole entry): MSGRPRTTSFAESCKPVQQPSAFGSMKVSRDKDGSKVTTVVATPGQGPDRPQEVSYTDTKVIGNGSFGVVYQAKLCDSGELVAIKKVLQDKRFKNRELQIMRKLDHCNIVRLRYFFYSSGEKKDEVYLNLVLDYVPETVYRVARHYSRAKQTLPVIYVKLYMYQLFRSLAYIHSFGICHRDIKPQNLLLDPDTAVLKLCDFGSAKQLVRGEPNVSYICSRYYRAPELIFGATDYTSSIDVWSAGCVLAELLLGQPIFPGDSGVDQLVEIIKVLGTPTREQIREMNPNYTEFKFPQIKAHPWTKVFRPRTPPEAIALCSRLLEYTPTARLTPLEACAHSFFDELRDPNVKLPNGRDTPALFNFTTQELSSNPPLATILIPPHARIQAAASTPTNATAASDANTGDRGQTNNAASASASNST

IC50 [1] [µM]	IC50 [2] [µM]	IC50 [3] [µM]	IC50 [4] [µM]	SMILES
0.1 to 10	0.001 to 0.1			CCc1c(-c2nnc(NCc3cccc(OC)c3)o2)ccc(O)c1C [Compound A2]
0.001 to 0.1	0.001 to 0.1	0.001 to 0.1	0.001 to 0.1	CCc1c(-c2nnc(NCc3cccc(F)c3)o2)ccc(O)c1C [Compound A1, 3-ethyl-4-[5-(3-fluorobenzylamino)-1,3,4-oxadiazol-2-yl]-2-methylphenol]
	0.1 to 10			CCc1c(-c2nnc(N)o2)ccc(O)c1C [Compound A4, 4-(5-amino-1,3,4-oxadiazol-2-yl)-3-ethyl-2-methylphenol]
	> 10			Oc1ccc(-c2nnc(NCc3cccc(F)c3)o2)nc1 [Compound A5, 6-[5-(3-fluorobenzylamino)-1,3,4-oxadiazol-2-yl]pyridin-3-ol]
0.001 to 0.1	0.001 to 0.1			CCc1c(-c2nnc(N[C@H](C)c3cccc(OC)c3)o2)ccc(O)c1C [Compound A3]
	> 10			Oc1ccc(-c2nnc(NCc3cccc(F)c3)o2)c(F)c1F [Compound A6, 2,3-difluoro-4-[5-(3-fluorobenzylamino)-1,3,4-oxadiazol-2-yl]phenol]

Source: US8377975B2, “Oxadiazole derivatives for the treatment of diabetes” (Merck Patent Gesellschaft Mit Beschrankter Haftung, priority 2008, dated 2013)
